Source: PMC10803372 (Cell Death & Disease, 2024)

Target: T1, PIKfyve (Homo sapiens, UniProt Q9Y2I7)
T1 construct: Recombinant GST-PIKfyve (full-length, #11-118)
Assay: in vitro lipid kinase assay, ADP-Glo luminescence, PI([…])P substrate
Format: biochemical

T1 sequence (Q9Y2I7 2-2098): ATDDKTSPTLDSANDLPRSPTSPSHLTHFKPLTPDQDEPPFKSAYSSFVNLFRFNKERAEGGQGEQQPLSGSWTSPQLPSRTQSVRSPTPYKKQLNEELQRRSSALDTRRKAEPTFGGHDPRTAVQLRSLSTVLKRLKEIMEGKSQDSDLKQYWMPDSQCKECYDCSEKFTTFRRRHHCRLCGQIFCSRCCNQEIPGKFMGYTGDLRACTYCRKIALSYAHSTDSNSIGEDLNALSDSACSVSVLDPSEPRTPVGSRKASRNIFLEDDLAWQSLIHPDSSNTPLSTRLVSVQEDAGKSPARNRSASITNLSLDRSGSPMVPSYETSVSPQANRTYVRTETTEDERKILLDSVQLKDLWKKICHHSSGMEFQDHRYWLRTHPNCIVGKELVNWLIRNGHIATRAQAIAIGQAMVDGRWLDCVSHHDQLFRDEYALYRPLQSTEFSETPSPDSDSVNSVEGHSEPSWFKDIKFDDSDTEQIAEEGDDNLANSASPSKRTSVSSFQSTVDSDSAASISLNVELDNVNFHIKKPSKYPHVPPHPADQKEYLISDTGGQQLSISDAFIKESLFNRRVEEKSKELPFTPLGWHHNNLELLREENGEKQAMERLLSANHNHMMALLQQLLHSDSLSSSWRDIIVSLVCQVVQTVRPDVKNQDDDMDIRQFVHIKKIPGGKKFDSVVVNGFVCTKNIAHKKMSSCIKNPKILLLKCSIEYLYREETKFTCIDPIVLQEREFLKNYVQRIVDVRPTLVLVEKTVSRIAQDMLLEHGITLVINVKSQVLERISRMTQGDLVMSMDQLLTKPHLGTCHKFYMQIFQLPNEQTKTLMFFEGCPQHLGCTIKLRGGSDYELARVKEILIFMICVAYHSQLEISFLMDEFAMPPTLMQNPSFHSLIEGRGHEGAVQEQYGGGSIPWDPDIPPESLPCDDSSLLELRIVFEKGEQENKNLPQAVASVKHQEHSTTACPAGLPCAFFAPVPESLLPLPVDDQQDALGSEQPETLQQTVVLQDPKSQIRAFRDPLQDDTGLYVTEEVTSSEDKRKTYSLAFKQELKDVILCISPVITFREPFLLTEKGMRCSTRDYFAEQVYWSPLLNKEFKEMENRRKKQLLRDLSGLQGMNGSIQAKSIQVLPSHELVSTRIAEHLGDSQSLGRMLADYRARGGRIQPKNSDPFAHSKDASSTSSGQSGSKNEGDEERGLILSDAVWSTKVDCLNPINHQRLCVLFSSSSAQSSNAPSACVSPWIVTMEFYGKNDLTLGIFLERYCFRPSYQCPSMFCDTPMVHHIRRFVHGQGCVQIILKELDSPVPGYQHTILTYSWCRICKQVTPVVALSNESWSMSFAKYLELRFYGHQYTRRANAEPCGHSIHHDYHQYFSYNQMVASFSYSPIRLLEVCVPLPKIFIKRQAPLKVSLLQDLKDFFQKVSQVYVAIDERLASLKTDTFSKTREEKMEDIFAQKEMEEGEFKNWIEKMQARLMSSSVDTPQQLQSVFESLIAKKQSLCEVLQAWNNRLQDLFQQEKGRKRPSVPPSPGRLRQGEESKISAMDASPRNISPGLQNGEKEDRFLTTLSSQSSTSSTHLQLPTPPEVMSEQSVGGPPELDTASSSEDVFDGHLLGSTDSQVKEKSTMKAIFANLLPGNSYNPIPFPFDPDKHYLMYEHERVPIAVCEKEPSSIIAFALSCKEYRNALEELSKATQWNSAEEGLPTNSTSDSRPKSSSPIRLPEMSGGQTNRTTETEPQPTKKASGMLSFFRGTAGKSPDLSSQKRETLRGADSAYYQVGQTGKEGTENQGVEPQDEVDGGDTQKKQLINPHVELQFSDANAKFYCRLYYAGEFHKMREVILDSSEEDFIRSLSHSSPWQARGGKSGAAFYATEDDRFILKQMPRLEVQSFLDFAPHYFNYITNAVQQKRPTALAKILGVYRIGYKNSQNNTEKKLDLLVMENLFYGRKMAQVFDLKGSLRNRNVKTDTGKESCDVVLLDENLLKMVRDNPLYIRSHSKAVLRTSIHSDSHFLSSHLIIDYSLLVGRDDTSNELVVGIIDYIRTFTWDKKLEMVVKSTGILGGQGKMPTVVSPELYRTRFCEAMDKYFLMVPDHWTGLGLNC

Oc1ccc(-c2nc(-c3ccncc3)c(-c3ccc(F)cc3)[nH]2)cc1 [SB202190] was tested. Which IC50 did it give?
Its IC50 is 355 ± 36.2 nM.
